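The compound was tested at five concentrations on cells cultured in 96-well plates, with a 48-hour exposure period. Definition used: TGI = concentration required for complete inhibition of growth.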
The molecules below were run on COLO 205 colon (assay: DTP human tumour cell line panel, 48 h).
For `OC1(c2ccccc2)CSC2=Nc3ccccc3C3CCN1N23` (configuration not stated), the TGI was 32.3 µM.

What follows are molecules tested on MOLT-4 leukemia (assay: DTP human tumour cell line panel, 48 h).
In the case of `Nc1nc(Cl)c(N)c(NCC2(CO)CC(CCCc3ccccc3)C2)n1` (configuration not stated), the TGI is reported as over 100 µM.
`COc1nc(N)c(N=CC(OC(C)=O)C(OC(C)=O)C(COC(C)=O)OC(C)=O)c(=O)n1C` (configuration not stated) gave a TGI of over 100 µM.
Work on `C#CCOCC12C=CC(O1)C1C(=O)OCC12` (configuration not stated) yielded a TGI of over 100 µM.
`Cc1nc(-c2ccc(N=Cc3ccc(N(CCOS(C)(=O)=O)CCOS(C)(=O)=O)cc3C)cc2)cs1` gave a TGI of over 100 µM.
`Cc1ccc2c(=O)cc(-c3ccc(-c4ccccc4)s3)[nH]c2n1` was tested, and the TGI was over 78.9 µM.
In the case of `OC1(c2ccccc2)CSC2=Nc3ccccc3C3CCN1N23` (configuration not stated), the TGI is reported as 80.9 µM.

The molecules below were run on A498 renal (assay: DTP human tumour cell line panel, 48 h).
In the case of `Nc1nc(Cl)c(N)c(NCC2(CO)CC(CCCc3ccccc3)C2)n1` (configuration not stated), the TGI is reported as 66.1 µM.
For `COc1nc(N)c(N=CC(OC(C)=O)C(OC(C)=O)C(COC(C)=O)OC(C)=O)c(=O)n1C` (configuration not stated), the TGI was over 100 µM.
`C#CCOCC12C=CC(O1)C1C(=O)OCC12` (configuration not stated) was tested, and the TGI was over 100 µM.
`Cc1nc(-c2ccc(N=Cc3ccc(N(CCOS(C)(=O)=O)CCOS(C)(=O)=O)cc3C)cc2)cs1` gave a TGI of 11.4 µM.
With `Cc1ccc2c(=O)cc(-c3ccc(-c4ccccc4)s3)[nH]c2n1` the TGI was 72.7 µM.
For `OC1(c2ccccc2)CSC2=Nc3ccccc3C3CCN1N23` (configuration not stated), the TGI was 44.7 µM.

Each molecule was assayed on MCF7 breast (assay: DTP human tumour cell line panel, 48 h).
Molecule `Nc1nc(Cl)c(N)c(NCC2(CO)CC(CCCc3ccccc3)C2)n1` (configuration not stated) has a TGI of over 85.7 µM.
In the case of `COc1nc(N)c(N=CC(OC(C)=O)C(OC(C)=O)C(COC(C)=O)OC(C)=O)c(=O)n1C` (configuration not stated), the TGI is reported as over 100 µM.
Molecule `C#CCOCC12C=CC(O1)C1C(=O)OCC12` (configuration not stated) has a TGI of over 100 µM.
`Cc1nc(-c2ccc(N=Cc3ccc(N(CCOS(C)(=O)=O)CCOS(C)(=O)=O)cc3C)cc2)cs1` gave a TGI of 53.6 µM.
`Cc1ccc2c(=O)cc(-c3ccc(-c4ccccc4)s3)[nH]c2n1` gave a TGI of over 100 µM.
With `OC1(c2ccccc2)CSC2=Nc3ccccc3C3CCN1N23` (configuration not stated) the TGI was 46 µM.

What follows are molecules tested on NCI-H226 lung (assay: DTP human tumour cell line panel, 48 h).
`Nc1nc(Cl)c(N)c(NCC2(CO)CC(CCCc3ccccc3)C2)n1` (configuration not stated) showed a TGI of over 63.7 µM.
Work on `COc1nc(N)c(N=CC(OC(C)=O)C(OC(C)=O)C(COC(C)=O)OC(C)=O)c(=O)n1C` (configuration not stated) yielded a TGI of over 100 µM.
`C#CCOCC12C=CC(O1)C1C(=O)OCC12` (configuration not stated) was tested, and the TGI was over 100 µM.
For `Cc1nc(-c2ccc(N=Cc3ccc(N(CCOS(C)(=O)=O)CCOS(C)(=O)=O)cc3C)cc2)cs1`, the TGI was 28.3 µM.
Molecule `Cc1ccc2c(=O)cc(-c3ccc(-c4ccccc4)s3)[nH]c2n1` has a TGI of over 100 µM.
For `OC1(c2ccccc2)CSC2=Nc3ccccc3C3CCN1N23` (configuration not stated), the TGI was over 100 µM.

These molecules were tested on M14 melanoma (assay: DTP human tumour cell line panel, 48 h).
`Nc1nc(Cl)c(N)c(NCC2(CO)CC(CCCc3ccccc3)C2)n1` (configuration not stated) showed a TGI of over 53.4 µM.
Work on `COc1nc(N)c(N=CC(OC(C)=O)C(OC(C)=O)C(COC(C)=O)OC(C)=O)c(=O)n1C` (configuration not stated) yielded a TGI of over 100 µM.
For `C#CCOCC12C=CC(O1)C1C(=O)OCC12` (configuration not stated), the TGI was over 100 µM.
For `Cc1nc(-c2ccc(N=Cc3ccc(N(CCOS(C)(=O)=O)CCOS(C)(=O)=O)cc3C)cc2)cs1`, the TGI was over 100 µM.
Molecule `Cc1ccc2c(=O)cc(-c3ccc(-c4ccccc4)s3)[nH]c2n1` has a TGI of over 100 µM.
In the case of `OC1(c2ccccc2)CSC2=Nc3ccccc3C3CCN1N23` (configuration not stated), the TGI is reported as 38.3 µM.

These molecules were tested on HS 578T breast (assay: DTP human tumour cell line panel, 48 h).
Molecule `Nc1nc(Cl)c(N)c(NCC2(CO)CC(CCCc3ccccc3)C2)n1` (configuration not stated) has a TGI of over 100 µM.
Work on `COc1nc(N)c(N=CC(OC(C)=O)C(OC(C)=O)C(COC(C)=O)OC(C)=O)c(=O)n1C` (configuration not stated) yielded a TGI of over 100 µM.
`C#CCOCC12C=CC(O1)C1C(=O)OCC12` (configuration not stated) gave a TGI of over 100 µM.
For `Cc1nc(-c2ccc(N=Cc3ccc(N(CCOS(C)(=O)=O)CCOS(C)(=O)=O)cc3C)cc2)cs1`, the TGI was over 100 µM.
`Cc1ccc2c(=O)cc(-c3ccc(-c4ccccc4)s3)[nH]c2n1` showed a TGI of over 72.6 µM.
Molecule `OC1(c2ccccc2)CSC2=Nc3ccccc3C3CCN1N23` (configuration not stated) has a TGI of over 100 µM.

Each molecule was assayed on CCRF-CEM leukemia (assay: DTP human tumour cell line panel, 48 h).
Molecule `Nc1nc(Cl)c(N)c(NCC2(CO)CC(CCCc3ccccc3)C2)n1` (configuration not stated) has a TGI of 7.16 µM.
`COc1nc(N)c(N=CC(OC(C)=O)C(OC(C)=O)C(COC(C)=O)OC(C)=O)c(=O)n1C` (configuration not stated) was tested, and the TGI was over 100 µM.
With `C#CCOCC12C=CC(O1)C1C(=O)OCC12` (configuration not stated) the TGI was over 100 µM.
`Cc1nc(-c2ccc(N=Cc3ccc(N(CCOS(C)(=O)=O)CCOS(C)(=O)=O)cc3C)cc2)cs1` gave a TGI of over 100 µM.
In the case of `Cc1ccc2c(=O)cc(-c3ccc(-c4ccccc4)s3)[nH]c2n1`, the TGI is reported as over 100 µM.
`OC1(c2ccccc2)CSC2=Nc3ccccc3C3CCN1N23` (configuration not stated) gave a TGI of 94.1 µM.

Each molecule was assayed on 786-0 renal (assay: DTP human tumour cell line panel, 48 h).
Work on `Nc1nc(Cl)c(N)c(NCC2(CO)CC(CCCc3ccccc3)C2)n1` (configuration not stated) yielded a TGI of over 51.7 µM.
Work on `COc1nc(N)c(N=CC(OC(C)=O)C(OC(C)=O)C(COC(C)=O)OC(C)=O)c(=O)n1C` (configuration not stated) yielded a TGI of over 100 µM.
`C#CCOCC12C=CC(O1)C1C(=O)OCC12` (configuration not stated) gave a TGI of over 100 µM.
`Cc1nc(-c2ccc(N=Cc3ccc(N(CCOS(C)(=O)=O)CCOS(C)(=O)=O)cc3C)cc2)cs1` gave a TGI of 47.5 µM.
`Cc1ccc2c(=O)cc(-c3ccc(-c4ccccc4)s3)[nH]c2n1` was tested, and the TGI was over 100 µM.
For `OC1(c2ccccc2)CSC2=Nc3ccccc3C3CCN1N23` (configuration not stated), the TGI was 34.4 µM.

The molecules below were run on HT29 colon (assay: DTP human tumour cell line panel, 48 h).
Molecule `Nc1nc(Cl)c(N)c(NCC2(CO)CC(CCCc3ccccc3)C2)n1` (configuration not stated) has a TGI of over 22.8 µM.
With `COc1nc(N)c(N=CC(OC(C)=O)C(OC(C)=O)C(COC(C)=O)OC(C)=O)c(=O)n1C` (configuration not stated) the TGI was over 100 µM.
`C#CCOCC12C=CC(O1)C1C(=O)OCC12` (configuration not stated) was tested, and the TGI was over 100 µM.
Work on `Cc1nc(-c2ccc(N=Cc3ccc(N(CCOS(C)(=O)=O)CCOS(C)(=O)=O)cc3C)cc2)cs1` yielded a TGI of over 100 µM.
`Cc1ccc2c(=O)cc(-c3ccc(-c4ccccc4)s3)[nH]c2n1` gave a TGI of over 100 µM.
In the case of `OC1(c2ccccc2)CSC2=Nc3ccccc3C3CCN1N23` (configuration not stated), the TGI is reported as 33.8 µM.

The molecules below were run on HCT-15 colon (assay: DTP human tumour cell line panel, 48 h).
Work on `Nc1nc(Cl)c(N)c(NCC2(CO)CC(CCCc3ccccc3)C2)n1` (configuration not stated) yielded a TGI of over 100 µM.
`COc1nc(N)c(N=CC(OC(C)=O)C(OC(C)=O)C(COC(C)=O)OC(C)=O)c(=O)n1C` (configuration not stated) gave a TGI of over 100 µM.
For `C#CCOCC12C=CC(O1)C1C(=O)OCC12` (configuration not stated), the TGI was over 100 µM.
Work on `Cc1nc(-c2ccc(N=Cc3ccc(N(CCOS(C)(=O)=O)CCOS(C)(=O)=O)cc3C)cc2)cs1` yielded a TGI of over 100 µM.
`Cc1ccc2c(=O)cc(-c3ccc(-c4ccccc4)s3)[nH]c2n1` gave a TGI of over 100 µM.
`OC1(c2ccccc2)CSC2=Nc3ccccc3C3CCN1N23` (configuration not stated) was tested, and the TGI was 39.1 µM.

Each molecule was assayed on SF-539 CNS (assay: DTP human tumour cell line panel, 48 h).
`Nc1nc(Cl)c(N)c(NCC2(CO)CC(CCCc3ccccc3)C2)n1` (configuration not stated) was tested, and the TGI was over 64.2 µM.
With `COc1nc(N)c(N=CC(OC(C)=O)C(OC(C)=O)C(COC(C)=O)OC(C)=O)c(=O)n1C` (configuration not stated) the TGI was over 100 µM.
In the case of `C#CCOCC12C=CC(O1)C1C(=O)OCC12` (configuration not stated), the TGI is reported as over 100 µM.
In the case of `Cc1nc(-c2ccc(N=Cc3ccc(N(CCOS(C)(=O)=O)CCOS(C)(=O)=O)cc3C)cc2)cs1`, the TGI is reported as 8.84 µM.
In the case of `Cc1ccc2c(=O)cc(-c3ccc(-c4ccccc4)s3)[nH]c2n1`, the TGI is reported as 36.6 µM.
`OC1(c2ccccc2)CSC2=Nc3ccccc3C3CCN1N23` (configuration not stated) was tested, and the TGI was 30.8 µM.

What follows are molecules tested on OVCAR-8 ovarian (assay: DTP human tumour cell line panel, 48 h).
Work on `Nc1nc(Cl)c(N)c(NCC2(CO)CC(CCCc3ccccc3)C2)n1` (configuration not stated) yielded a TGI of over 100 µM.
In the case of `COc1nc(N)c(N=CC(OC(C)=O)C(OC(C)=O)C(COC(C)=O)OC(C)=O)c(=O)n1C` (configuration not stated), the TGI is reported as over 100 µM.
`C#CCOCC12C=CC(O1)C1C(=O)OCC12` (configuration not stated) gave a TGI of over 100 µM.
Work on `Cc1nc(-c2ccc(N=Cc3ccc(N(CCOS(C)(=O)=O)CCOS(C)(=O)=O)cc3C)cc2)cs1` yielded a TGI of over 100 µM.
With `Cc1ccc2c(=O)cc(-c3ccc(-c4ccccc4)s3)[nH]c2n1` the TGI was over 100 µM.
`OC1(c2ccccc2)CSC2=Nc3ccccc3C3CCN1N23` (configuration not stated) gave a TGI of 43.5 µM.

Each molecule was assayed on SN12C renal (assay: DTP human tumour cell line panel, 48 h).
`Nc1nc(Cl)c(N)c(NCC2(CO)CC(CCCc3ccccc3)C2)n1` (configuration not stated) gave a TGI of over 100 µM.
In the case of `COc1nc(N)c(N=CC(OC(C)=O)C(OC(C)=O)C(COC(C)=O)OC(C)=O)c(=O)n1C` (configuration not stated), the TGI is reported as over 100 µM.
`C#CCOCC12C=CC(O1)C1C(=O)OCC12` (configuration not stated) showed a TGI of over 100 µM.
For `Cc1nc(-c2ccc(N=Cc3ccc(N(CCOS(C)(=O)=O)CCOS(C)(=O)=O)cc3C)cc2)cs1`, the TGI was over 100 µM.
`Cc1ccc2c(=O)cc(-c3ccc(-c4ccccc4)s3)[nH]c2n1` gave a TGI of over 100 µM.
Work on `OC1(c2ccccc2)CSC2=Nc3ccccc3C3CCN1N23` (configuration not stated) yielded a TGI of 40.1 µM.

What follows are molecules tested on OVCAR-3 ovarian (assay: DTP human tumour cell line panel, 48 h).
`Nc1nc(Cl)c(N)c(NCC2(CO)CC(CCCc3ccccc3)C2)n1` (configuration not stated) gave a TGI of over 67.2 µM.
In the case of `COc1nc(N)c(N=CC(OC(C)=O)C(OC(C)=O)C(COC(C)=O)OC(C)=O)c(=O)n1C` (configuration not stated), the TGI is reported as over 100 µM.
`C#CCOCC12C=CC(O1)C1C(=O)OCC12` (configuration not stated) was tested, and the TGI was over 100 µM.
In the case of `Cc1nc(-c2ccc(N=Cc3ccc(N(CCOS(C)(=O)=O)CCOS(C)(=O)=O)cc3C)cc2)cs1`, the TGI is reported as over 100 µM.
Work on `Cc1ccc2c(=O)cc(-c3ccc(-c4ccccc4)s3)[nH]c2n1` yielded a TGI of over 100 µM.
`OC1(c2ccccc2)CSC2=Nc3ccccc3C3CCN1N23` (configuration not stated) gave a TGI of over 100 µM.

Each molecule was assayed on DU-145 prostate (assay: DTP human tumour cell line panel, 48 h).
In the case of `Nc1nc(Cl)c(N)c(NCC2(CO)CC(CCCc3ccccc3)C2)n1` (configuration not stated), the TGI is reported as over 100 µM.
In the case of `COc1nc(N)c(N=CC(OC(C)=O)C(OC(C)=O)C(COC(C)=O)OC(C)=O)c(=O)n1C` (configuration not stated), the TGI is reported as over 100 µM.
